IC50, TGI and inhibition in vivo data for 12 molecules are collected here from ChEMBL document CHEMBL2429838, “Synthesis and antitumor activity evaluation of 2-arylisoquinoline-1,3(2H,4H)-diones in vitro and in vivo” (Med Chem Res, 2013).

pIC50: −log10 of the molar value.

One assay deals with A549. As to the kind of experiment: Cytotoxicity against human A549 cells after 48 hrs by MTT assay. The conditions noted are these: A549, 48 h. The class given is functional, cell-based. In general terms: Formazan colour is commonly taken as a measure of viable cells.
A further assay relates to PC-3. Put plainly: Cytotoxicity against human PC3 cells after 48 hrs by MTT assay. The conditions noted are these: PC-3, 48 h. The class given is functional, cell-based.
Another assay concerns A-431. As to the kind of experiment: Cytotoxicity against human A431 cells after 48 hrs by MTT assay. The class given is functional, cell-based. To be noted: A-431, 48 h.
The test system of assay [1] is PANC-1. As to the kind of experiment: Antitumor activity against human PANC1 cells xenografted in po dosed mouse assessed as tumor growth inhibition administered qd for 13 days measured up to 21 days. The assay is classed as functional, organism-based. (Xenograft models place foreign cells or tissue in a host animal.)
Assay [2] deals with PANC-1. As to the kind of experiment: Antitumor activity against human PANC1 cells xenografted in mouse assessed as tumor growth inhibition at 25 mg/kg, po qd for 13 days measured up to 21 days. The class given is functional. To be noted: read-out: TGI.
For assay [3], the system named is PANC-1. As to the kind of experiment: Antitumor activity against human PANC1 cells xenografted in mouse assessed as tumor growth inhibition at 5 mg/kg, po qd for 13 days measured up to 21 days. The assay is classed as functional. To be noted: read-out: TGI.

Usually pIC50 stands for −log10 of the IC50, conventionally taken in molar units. A higher pIC50 goes with a small IC50. As to `COc1cc2c(c(OC)c1)C(=O)N(c1ccc3nc(NC(C)=O)sc3c1)C(=O)C2`, the values for the pIC50 in the assay on A549, with PC-3 and in the assay on A-431 were 4.69, 4.95 and 4.92, respectively.

`COc1cc2c(c(OC)c1)C(=O)N(c1ccc3nc(NC(=O)C4CC4)sc3c1)C(=O)C2`: the TGI entry in the assay on PANC-1 [1] is “Dose-dependent effect”. Also, the inhibition in vivo at 25 mg/kg in the assay with PANC-1 [2] worked out at 31.5%. For the same molecule, in the assay with PANC-1 [3], the inhibition in vivo at 5 mg/kg was 23.7%. Further, the pIC50 was 4.90 with A549, 5.11 in the assay with PC-3 and 5.15 with A-431.

Regarding `COc1cc2c(c(OC)c1)C(=O)N(c1ccc(C(F)(F)F)cc1)C(=O)C2`, the pIC50 is 4.49 with A549, 4.77 in the assay with PC-3 and 4.48 in the assay on A-431.

For the molecule `COc1cc2c(c(OC)c1)C(=O)N(c1ccc(C)cc1)C(=O)C2`, the negative logarithm of the IC50 (pIC50) with A549 is 4.36; with PC-3 it was 4.68; in the assay on A-431 it was 4.32.

For `C#Cc1cccc(N2C(=O)Cc3cc(OC)cc(OC)c3C2=O)c1`, the pIC50 with A549 was below 4.00; in the assay on PC-3 it was 4.54; in the assay on A-431 it was 4.22.

For the molecule `O=C(Nc1ccc2nc(NC(=O)C3CC3)sc2c1)c1c(Cl)cccc1Cl`, the results for the pIC50 in the assay on A549 and in the assay with PC-3 were 5.05 and 5.70, respectively.

In the case of `COc1cc2c(c(OC)c1)C(=O)N(c1cccc(C(F)(F)F)c1)C(=O)C2`, the values for the negative logarithm of the IC50 (pIC50) in the assay with A549, in the assay on PC-3 and in the assay on A-431 were below 4.00, 4.34 and 4.20, respectively.

As for `COc1ccc(N2C(=O)Cc3cc(OC)cc(OC)c3C2=O)cc1`, the pIC50 in the assay with A549 is below 4.00; with PC-3 it was below 4.00; with A-431 it was 4.10.

For `O=C(Nc1nc2ccc(N3C(=O)Cc4ccccc4C3=O)cc2s1)C1CC1`, the figures for the pIC50 with A549, in the assay with PC-3 and in the assay with A-431 were 4.65, 4.78 and 4.33, respectively.

Regarding `COc1ccc2c(c1)CC(=O)N(c1ccc3nc(NC(=O)C4CC4)sc3c1)C2=O`, the pIC50 in the assay on A549 was 4.68; with PC-3, 4.98; in the assay with A-431, 4.92.

Regarding `COc1cc2c(c(OC)c1OC)C(=O)N(c1ccc3nc(NC(=O)C4CC4)sc3c1)C(=O)C2`, the pIC50 in the assay with A549 is 4.79; in the assay on PC-3, 4.69; in the assay on A-431, 5.12.

`O=C(Nc1nc2ccc(N3C(=O)Cc4ccc(F)cc4C3=O)cc2s1)C1CC1`: the pIC50 was 4.90 with A549, 4.93 in the assay on PC-3 and 5.06 in the assay on A-431.
